Assay results published in patent US7452870B2, “Drug-eluting stents coated with P2Y12 receptor antagonist compound” (Inspire Pharmaceuticals, Inc., priority 2000, dated 2008).

Key:
Format in all cases: cell-based
[1] = tested on: washed platelet (ADP-induced aggregation; P2Y12 receptor); test: ADP-induced platelet aggregation, washed platelet preparation; details: Homo sapiens, inhibition of ADP-induced aggregation, washed platelets, average of at least two separate experiments
Protocol: Blood was collected from healthy volunteers into syringes containing ⅙ final blood volume of anti-coagulant ACD (65 mM citric acid, 85 mM sodium citrate, 110 mM dextrose) for washed platelet (WP) preparation or into a syringe containing a final concentration of 10 units/mL heparin or 300 μM PPACK for whole blood (WB) assays. The blood collected for whole blood assays was maintained at room temperature and immediately tested as described below. […] These centrifugations and washes were repeated twice following by resuspension in the media described above containing 0.25 U apyrase/mL. Platelet aggregation was measured using the optical mode of a CHRONOLOG® aggregometer (Havertown, Pa.). Five hundred μl of platelet suspension containing 1 mg/mL Fibrinogen were warmed to 37° C. and stirred at 1000 rpm. Indicated concentrations of ADP were added to the sample and aggregation was monitored for 8 minutes. […] For whole blood aggregation, blood was diluted 1:1 with saline and then aggregation was performed in the same manner as described above using the impedance mode of the aggregometer. The potency of agonists and inhibitors of platelet aggregation was calculated from both, the rate of aggregation and the maximal extent of aggregation obtained for each determination by fitting the data to a four-parameter logistic equation using the […]® software package (GraphPad Corp. San Diego, Calif.).
The ability of P2Y12 antagonists to inhibit platelet aggregation is presented in this application as the percent inhibition of the aggregation induced by a maximally effective concentration of ADP.
Data presented are from the average of at least two separate experiments.

P2Y1 = P2Y1 (Homo sapiens, UniProt P47900); test: Calcium mobilization assay, P2Y1; set-up: key: no response (NR); details: activation of P2Y1 receptor;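 note: test compound added first then a maximal dose of the cognate agonist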
Sequence of P2Y1 (P47900 whole entry): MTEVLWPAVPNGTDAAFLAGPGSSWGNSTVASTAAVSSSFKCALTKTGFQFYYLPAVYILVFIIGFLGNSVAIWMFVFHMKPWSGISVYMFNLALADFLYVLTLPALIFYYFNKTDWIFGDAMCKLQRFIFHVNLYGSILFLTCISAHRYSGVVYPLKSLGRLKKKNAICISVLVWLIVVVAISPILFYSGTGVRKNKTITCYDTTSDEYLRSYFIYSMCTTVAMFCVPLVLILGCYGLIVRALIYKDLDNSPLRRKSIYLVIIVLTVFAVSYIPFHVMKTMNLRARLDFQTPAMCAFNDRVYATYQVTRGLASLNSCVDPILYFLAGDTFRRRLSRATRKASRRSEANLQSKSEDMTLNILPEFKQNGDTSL

P2Y2 = P2Y2 (Homo sapiens, UniProt P41231); test: Calcium mobilization assay, P2Y2; set-up: key: no response (NR); details: activation of P2Y2 receptor;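 note: test compound added first then a maximal dose of the cognate agonist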
Sequence of P2Y2 (P41231 whole entry, species assumed): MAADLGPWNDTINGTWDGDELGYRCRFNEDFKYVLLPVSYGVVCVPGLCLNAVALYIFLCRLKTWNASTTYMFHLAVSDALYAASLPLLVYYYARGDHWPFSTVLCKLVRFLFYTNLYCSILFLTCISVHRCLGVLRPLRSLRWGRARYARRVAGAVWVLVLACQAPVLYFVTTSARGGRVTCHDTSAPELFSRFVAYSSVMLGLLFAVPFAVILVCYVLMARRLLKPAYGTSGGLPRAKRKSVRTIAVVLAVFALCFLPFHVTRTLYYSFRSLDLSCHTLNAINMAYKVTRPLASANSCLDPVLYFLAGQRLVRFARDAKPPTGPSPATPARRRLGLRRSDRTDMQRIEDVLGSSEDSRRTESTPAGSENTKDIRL

P2Y4 = P2Y4 (Homo sapiens, UniProt P51582); test: Calcium mobilization assay, P2Y4; set-up: key: no response (NR); details: activation of P2Y4 receptor;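 note: test compound added first then a maximal dose of the cognate agonist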
Sequence of P2Y4 (P51582 whole entry, species assumed): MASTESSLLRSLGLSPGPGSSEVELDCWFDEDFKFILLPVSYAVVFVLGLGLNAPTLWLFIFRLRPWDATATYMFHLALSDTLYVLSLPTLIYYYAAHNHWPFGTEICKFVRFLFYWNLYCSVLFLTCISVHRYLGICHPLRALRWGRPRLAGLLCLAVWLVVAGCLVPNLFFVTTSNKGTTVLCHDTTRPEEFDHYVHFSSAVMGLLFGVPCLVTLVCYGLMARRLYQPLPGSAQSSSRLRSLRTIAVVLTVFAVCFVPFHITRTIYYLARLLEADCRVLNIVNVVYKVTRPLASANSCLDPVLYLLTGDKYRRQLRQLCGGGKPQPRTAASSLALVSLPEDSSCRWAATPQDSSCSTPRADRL

P2Y6 = P2Y6 (Homo sapiens, UniProt Q15077); test: Calcium mobilization assay, P2Y6; set-up: key: no response (NR); details: activation of P2Y6 receptor;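 note: test compound added first then a maximal dose of the cognate agonist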
Sequence of P2Y6 (Q15077 whole entry, species assumed): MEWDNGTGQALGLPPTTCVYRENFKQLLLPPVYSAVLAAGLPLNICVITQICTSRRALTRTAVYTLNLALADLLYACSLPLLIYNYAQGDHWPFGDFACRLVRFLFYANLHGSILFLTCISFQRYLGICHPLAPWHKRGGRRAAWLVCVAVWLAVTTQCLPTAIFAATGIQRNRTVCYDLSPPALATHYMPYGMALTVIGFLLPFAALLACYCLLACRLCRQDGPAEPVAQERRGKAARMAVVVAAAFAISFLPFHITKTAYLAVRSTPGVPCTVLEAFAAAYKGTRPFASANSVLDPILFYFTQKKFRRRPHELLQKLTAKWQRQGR

O=C(Nc1ccccc1)Nc1ncnc2c1ncn2[C@@H]1O[C@H](COP(=O)(O)O)C2OC(Cc3ccccc3)O[C@@H]21 (stereo partly shown) [Compound 22, 2′,3′-phenylacetaldehyde acetal-6-N-phenylurea adenosine 5′-monophosphate]
IC50 [1]: 160 ± 27 nM
Calcium Mobilization P2Y1 (P2Y1): NR
Calcium Mobilization P2Y2 (P2Y2): NR
Calcium Mobilization P2Y4 (P2Y4): NR
Calcium Mobilization P2Y6 (P2Y6): NR

CCCCCCNC(=O)Nc1ncnc2c1ncn2[C@@H]1O[C@H](COP(=O)(O)O)C2OC(Cc3ccccc3)O[C@@H]21 (stereo partly shown) [Compound 23, 2′,3′-phenylacetaldehyde acetal-6-N-n-hexylurea AMP]
IC50 [1]: 53 ± 16 nM
Calcium Mobilization P2Y1 (P2Y1): NR
Calcium Mobilization P2Y2 (P2Y2): NR
Calcium Mobilization P2Y4 (P2Y4): NR
Calcium Mobilization P2Y6 (P2Y6): NR

CCNC(=O)Nc1ncnc2c1ncn2[C@@H]1O[C@H](COP(=O)(O)O)C2OC(Cc3ccccc3)O[C@@H]21 (stereo partly shown) [Compound 24, 2′,3′-phenylacetaldehyde acetal-6-N-ethylurea AMP]
IC50 [1]: 41 ± 7 nM
Calcium Mobilization P2Y1 (P2Y1): NR
Calcium Mobilization P2Y2 (P2Y2): NR
Calcium Mobilization P2Y4 (P2Y4): NR
Calcium Mobilization P2Y6 (P2Y6): NR

O=C(Nc1ncnc2c1ncn2[C@@H]1O[C@H](COP(=O)(O)O)C2OC(Cc3ccccc3)O[C@@H]21)NC1CCCC1 (stereo partly shown) [Compound 25, 2′,3′-phenylacetaldehyde acetal-6-N-cyclopentylurea AMP]
IC50 [1]: 36 ± 9 nM
Calcium Mobilization P2Y1 (P2Y1): NR
Calcium Mobilization P2Y2 (P2Y2): NR
Calcium Mobilization P2Y4 (P2Y4): NR
Calcium Mobilization P2Y6 (P2Y6): NR

CCCCCCNC(=O)Nc1ncnc2c1ncn2[C@@H]1O[C@H](COP(=O)(O)O)C2OC(/C=C/c3ccccc3)O[C@@H]21 (stereo partly shown) [Compound 26, 2′,3′-cinnamyl acetal-6-N-n-hexylurea AMP]
IC50 [1]: 36 ± 9 nM
Calcium Mobilization P2Y1 (P2Y1): NR
Calcium Mobilization P2Y2 (P2Y2): NR
Calcium Mobilization P2Y4 (P2Y4): NR
Calcium Mobilization P2Y6 (P2Y6): NR

CCNC(=O)Nc1ncnc2c1ncn2[C@@H]1O[C@H](COP(=O)(O)O)C2OC(/C=C/c3ccccc3)O[C@@H]21 (stereo partly shown) [Compound 27, 2′,3′-cinnamyl acetal-6-N-ethylurea adenosine 5′-monophosphate]
IC50 [1]: 9 ± 3 nM
Calcium Mobilization P2Y1 (P2Y1): NR
Calcium Mobilization P2Y2 (P2Y2): NR
Calcium Mobilization P2Y4 (P2Y4): NR
Calcium Mobilization P2Y6 (P2Y6): NR

O=C(Nc1ccccc1)Nc1ncnc2c1ncn2[C@@H]1O[C@H](COP(=O)(O)O)C2OC(/C=C/c3ccccc3)O[C@@H]21 (stereo partly shown) [Compound 28, 2′,3′-cinnamyl acetal-6-N-phenylurea AMP]
IC50 [1]: 209 nM
Calcium Mobilization P2Y1 (P2Y1): NR
Calcium Mobilization P2Y2 (P2Y2): NR
Calcium Mobilization P2Y4 (P2Y4): NR
Calcium Mobilization P2Y6 (P2Y6): NR

O=C(Nc1ccccc1)Nc1ncnc2c1ncn2[C@@H]1O[C@H](COP(=O)(O)O)C2OC(C#Cc3ccccc3)O[C@@H]21 (stereo partly shown) [Compound 31, 2′,3′-phenylpropargyl acetal-6-N-phenylurea AMP]
IC50 [1]: 230 nM
Calcium Mobilization P2Y1 (P2Y1): NR
Calcium Mobilization P2Y2 (P2Y2): NR
Calcium Mobilization P2Y4 (P2Y4): NR
Calcium Mobilization P2Y6 (P2Y6): NR

CCCCCCNC(=O)Nc1ncnc2c1ncn2[C@@H]1O[C@H](COP(=O)(O)O)C2OC(C#Cc3ccccc3)O[C@@H]21 (stereo partly shown) [Compound 32, 2′,3′-phenylpropargyl acetal-6-N-n-hexylurea AMP]
IC50 [1]: 210 nM
Calcium Mobilization P2Y1 (P2Y1): NR
Calcium Mobilization P2Y2 (P2Y2): NR
Calcium Mobilization P2Y4 (P2Y4): NR
Calcium Mobilization P2Y6 (P2Y6): NR

CCCCNC(=O)Nc1ncnc2c1ncn2[C@@H]1O[C@H](COP(=O)(O)O)C2OC(C#Cc3ccccc3)O[C@@H]21 (stereo partly shown) [Compound 33, 2′,3′-phenylpropargyl acetal-6-N-n-butylurea AMP]
IC50 [1]: 67 nM
Calcium Mobilization P2Y1 (P2Y1): NR
Calcium Mobilization P2Y2 (P2Y2): NR
Calcium Mobilization P2Y4 (P2Y4): NR
Calcium Mobilization P2Y6 (P2Y6): NR

CCNC(=O)Nc1ncnc2c1ncn2[C@@H]1O[C@H](COP(=O)(O)O)C2OC(C#Cc3ccccc3)O[C@@H]21 (stereo partly shown) [Compound 35, 2′,3′-phenylpropargyl acetal-6-N-ethylurea AMP]
IC50 [1]: 25 nM
Calcium Mobilization P2Y1 (P2Y1): NR
Calcium Mobilization P2Y2 (P2Y2): NR
Calcium Mobilization P2Y4 (P2Y4): NR
Calcium Mobilization P2Y6 (P2Y6): NR

CCNC(=O)Nc1ncnc2c1ncn2[C@@H]1O[C@H](COP(=O)(O)O)C2OC(c3ccccc3)O[C@@H]21 (stereo partly shown) [Compound 36, 2′,3′-benzaldehyde acetal-6-N-ethylurea AMP]
IC50 [1]: 13 ± 3 nM
Calcium Mobilization P2Y1 (P2Y1): NR
Calcium Mobilization P2Y2 (P2Y2): NR
Calcium Mobilization P2Y4 (P2Y4): NR
Calcium Mobilization P2Y6 (P2Y6): NR

CCNC(=O)Nc1ncnc2c1ncn2[C@@H]1O[C@H](COP(=O)(O)O)C2O[C@H](c3ccccc3)O[C@@H]21 (stereo partly drawn) [Compound 42, 2′3′-(trans)phenyl acetal-6-N-ethylurea AMP]
IC50 [1]: 12 nM
Calcium Mobilization P2Y1 (P2Y1): NR
Calcium Mobilization P2Y2 (P2Y2): NR
Calcium Mobilization P2Y4 (P2Y4): NR
Calcium Mobilization P2Y6 (P2Y6): NR

CCNC(=O)Nc1ncnc2c1ncn2[C@@H]1O[C@H](COP(=O)(O)O)C2O[C@@H](c3ccccc3)O[C@@H]21 (stereo partly drawn) [Compound 43, 2′3′-(cis)phenyl acetal-6-N-ethylurea AMP]
IC50 [1]: 11 nM
Calcium Mobilization P2Y1 (P2Y1): NR
Calcium Mobilization P2Y2 (P2Y2): NR
Calcium Mobilization P2Y4 (P2Y4): NR
Calcium Mobilization P2Y6 (P2Y6): NR

CCNC(=O)Nc1ncnc2c1ncn2[C@@H]1O[C@H](COP(=O)(O)OP(=O)(O)OC[C@H]2O[C@@H](n3cnc4c(NC(=O)NCC)ncnc43)[C@H]3OC(C#Cc4ccccc4)OC23)C2OC(C#Cc3ccccc3)OC21 (stereo partly shown) [Compound 45, P^1, p2′-di-(2′,3′-phenylpropargylacetal-6-N-ethylureaadenosine 5′-) diphosphate]
IC50 [1]: 10 nM
Calcium Mobilization P2Y1 (P2Y1): NR
Calcium Mobilization P2Y2 (P2Y2): NR
Calcium Mobilization P2Y4 (P2Y4): NR
Calcium Mobilization P2Y6 (P2Y6): NR

CCNC(=O)Nc1ncnc2c1ncn2[C@@H]1O[C@H](COP(=O)(O)OP(=O)(O)OC[C@H]2O[C@@H](n3cnc4c(NC(=O)NCC)ncnc43)[C@H]3OC(Cc4ccccc4)OC23)C2OC(Cc3ccccc3)OC21 (stereo partly shown) [Compound 46, P^1, P^1-di-(2′,3′-phenylacetaldehydeacetal-6-N-ethylureaadenosine 5′-) diphosphate]
IC50 [1]: 53 nM
Calcium Mobilization P2Y1 (P2Y1): NR
Calcium Mobilization P2Y2 (P2Y2): NR
Calcium Mobilization P2Y4 (P2Y4): NR
Calcium Mobilization P2Y6 (P2Y6): NR

CCNC(=O)Nc1ncnc2c1ncn2[C@@H]1O[C@H](COP(=O)(O)OP(=O)(O)OC[C@H]2O[C@@H](n3cnc4c(NC(=O)NCC)ncnc43)[C@H]3OC(c4ccccc4)OC23)C2OC(c3ccccc3)OC21 (stereo partly shown) [Compound 47, P^1, P^4-Di-(2′,3′-phenylacetal-6-N-ethylureaadenosine 5′-) diphosphate]
IC50 [1]: 55 nM
Calcium Mobilization P2Y1 (P2Y1): NR
Calcium Mobilization P2Y2 (P2Y2): NR
Calcium Mobilization P2Y4 (P2Y4): NR
Calcium Mobilization P2Y6 (P2Y6): NR
